Laboratory results published in the supplement of paper PMC11208160.

Test: recombinant UMI read abundance after kanamycin selection (control-corrected) (log10(CPM+1)); higher = more efficient recombination; extreme values may be limits of the assay; sequences stand for … in AGTGCAGAGAAAATCGGCCAGTTTTCTCTGCCTGCAGTCCGCATGCCGTGGGACCCCTTGGGTTCTAACCTGTTGCCTAGATTTATGCAGCGGACTGCCTTTCTCCCAAAGTGATAAACCGG…AGGTTGGTTTCACT; site = the 11-nt donor
Procedure, shortened: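 Sequenced counts of recombinant UMIs were turned into CPM, averaged across replicates and scaled with control-derived factors. The reported figure is log10(CPM+1). Those UMIs, each 12 nt long, tagged donor and donor-binding-loop pairs on a plasmid with a promoterless kanamycin gene, screened as a pool in Escherichia coli with IPTG (0.07 mM) plus kanamycin or without selection.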
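Note: IS621 bridge recombinase in Escherichia coli cells against a fixed T5 target plasmid.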

Row | Sequence | recombinant UMI read abundance (log10)
1 | CGACGACCATGGACCGGTTTTCCCGGTAATCCGTATTTGAC (site CGACGACCTGT) | 0
2 | CGACGGTCATGGACCGGTTTTCCCGGTAATCCGTATTTGTC (site CGACGGTCTGA) | 2.77
3 | CGACGTACATGGACCGGTTTTCCCGGTAATCCGTATTTGCT (site CGACGTACTAG) | 2.45
4 | CGACGTACATGGACCGGTTTTCCCGGTAATCCGTATTTGCT (site CGCCGTACTAG) | 0.0167
5 | CGACGTACATGGACCGGTTTTCCCGGTAATCCGTATTTGCT (site CGGCGTACTAG) | 0.688
6 | CGACGTACATGGACCGGTTTTCCCGGTAATCCGTATTTGCT (site CGTCGTACTAG) | 0.764
7 | CGACTTGCATGGACCGGTTTTCCCGGTAATCCGTATTTGAT (site CGACTTGCTAT) | 2.39
8 | CGAGAGGCATGGACCGGTTTTCCCGGTAATCCGTATTTGGG (site CGAGAGGCTCC) | 0.928
9 | CGAGCATCATGGACCGGTTTTCCCGGTAATCCGTATTTGCT (site CGAACATCTAG) | 0
10 | CGAGCATCATGGACCGGTTTTCCCGGTAATCCGTATTTGCT (site CGACCATCTAG) | 0
11 | CGAGCATCATGGACCGGTTTTCCCGGTAATCCGTATTTGCT (site CGAGCATCTAG) | 1.79
12 | CGAGCATCATGGACCGGTTTTCCCGGTAATCCGTATTTGCT (site CGATCATCTAG) | 0
13 | CGAGGACCATGGACCGGTTTTCCCGGTAATCCGTATTTGCG (site CGAGGACCTCA) | 0.00306
14 | CGAGGACCATGGACCGGTTTTCCCGGTAATCCGTATTTGCG (site CGAGGACCTCC) | 0.00697
15 | CGAGGACCATGGACCGGTTTTCCCGGTAATCCGTATTTGCG (site CGAGGACCTCG) | 0
16 | CGAGGACCATGGACCGGTTTTCCCGGTAATCCGTATTTGCG (site CGAGGACCTCT) | 0.00945
17 | CGAGGACCATGGACCGGTTTTCCCGGTAATCCGTATTTGGA (site CGAGGACCTAC) | 0
18 | CGAGGACCATGGACCGGTTTTCCCGGTAATCCGTATTTGGA (site CGAGGACCTCC) | 0.0127
19 | CGAGGACCATGGACCGGTTTTCCCGGTAATCCGTATTTGGA (site CGAGGACCTGC) | 0

Row | Sequence | recombinant UMI read abundance (log10)
20 | CGAGGACCATGGACCGGTTTTCCCGGTAATCCGTATTTGGA (site CGAGGACCTTC) | 0.0145
21 | CGAGGATCATGGACCGGTTTTCCCGGTAATCCGTATTTGGG (site CGAGGAACTCC) | 0.0163
22 | CGAGGATCATGGACCGGTTTTCCCGGTAATCCGTATTTGGG (site CGAGGACCTCC) | 0.00347
23 | CGAGGATCATGGACCGGTTTTCCCGGTAATCCGTATTTGGG (site CGAGGAGCTCC) | 0
24 | CGAGGATCATGGACCGGTTTTCCCGGTAATCCGTATTTGGG (site CGAGGATCTCC) | 1.15
25 | CGAGTATCATGGACCGGTTTTCCCGGTAATCCGTATTTGAT (site CGAGTATCTAT) | 2.89
26 | CGAGTATCATGGACCGGTTTTCCCGGTAATCCGTATTTGAT (site CTAGTATCTGT) | 0
27 | CGATAATCATGGACCGGTTTTCCCGGTAATCCGTATTTGCG (site CGATAATCTCG) | 3.34
28 | CGATAATCATGGACCGGTTTTCCCGGTAATCCGTATTTGCG (site CGATCATCTAG) | 0
29 | CGATCAACATGGACCGGTTTTCCCGGTAATCCGTATTTGTT (site CGATCAACTAA) | 0.0564
30 | CGATCAACATGGACCGGTTTTCCCGGTAATCCGTATTTGTT (site CGATCCACTAA) | 0.0118
31 | CGATCAACATGGACCGGTTTTCCCGGTAATCCGTATTTGTT (site CGATCGACTAA) | 0.00905
32 | CGATCAACATGGACCGGTTTTCCCGGTAATCCGTATTTGTT (site CGATCTACTAA) | 0.00984
33 | CGATCACCATGGACCGGTTTTCCCGGTAATCCGTATTTGAT (site CGATCACCTAT) | 0.00371
34 | CGATCACCATGGACCGGTTTTCCCGGTAATCCGTATTTGAT (site CGATCATCTAG) | 0
35 | CGATCATCATGGACCGGTTTTCCCGGTAATCCGTATTTGCT (site ACATCATCTAG) | 1.28
36 | CGATCATCATGGACCGGTTTTCCCGGTAATCCGTATTTGCT (site AGAGCATCTAG) | 0
37 | CGATCATCATGGACCGGTTTTCCCGGTAATCCGTATTTGCT (site AGATCAGCTAG) | 0.00274
38 | CGATCATCATGGACCGGTTTTCCCGGTAATCCGTATTTGCT (site AGATCATCTAA) | 0.00548

Row | Sequence | recombinant UMI read abundance (log10)
39 | CGATCATCATGGACCGGTTTTCCCGGTAATCCGTATTTGCT (site AGATCATCTAG) | 2.17
40 | CGATCATCATGGACCGGTTTTCCCGGTAATCCGTATTTGCT (site AGATCATCTTG) | 0
41 | CGATCATCATGGACCGGTTTTCCCGGTAATCCGTATTTGCT (site AGATCTTCTAG) | 0
42 | CGATCATCATGGACCGGTTTTCCCGGTAATCCGTATTTGCT (site AGATTATCTAG) | 0.017
43 | CGATCATCATGGACCGGTTTTCCCGGTAATCCGTATTTGCT (site AGGTCATCTAG) | 0
44 | CGATCATCATGGACCGGTTTTCCCGGTAATCCGTATTTGCT (site CAAACATCTAG) | 1.6
45 | CGATCATCATGGACCGGTTTTCCCGGTAATCCGTATTTGCT (site CAATCACCTAG) | 0
46 | CGATCATCATGGACCGGTTTTCCCGGTAATCCGTATTTGCT (site CAATCATCTAG) | 1.62
47 | CGATCATCATGGACCGGTTTTCCCGGTAATCCGTATTTGCT (site CAATCATCTAT) | 0
48 | CGATCATCATGGACCGGTTTTCCCGGTAATCCGTATTTGCT (site CAATCATCTGG) | 0
49 | CGATCATCATGGACCGGTTTTCCCGGTAATCCGTATTTGCT (site CAATCGTCTAG) | 0.00456
50 | CGATCATCATGGACCGGTTTTCCCGGTAATCCGTATTTGCT (site CAATGATCTAG) | 0
51 | CGATCATCATGGACCGGTTTTCCCGGTAATCCGTATTTGCT (site CATTCATCTAG) | 1.44
52 | CGATCATCATGGACCGGTTTTCCCGGTAATCCGTATTTGCT (site CCAGCATCTAG) | 0.0355
53 | CGATCATCATGGACCGGTTTTCCCGGTAATCCGTATTTGCT (site CCATCAGCTAG) | 0
54 | CGATCATCATGGACCGGTTTTCCCGGTAATCCGTATTTGCT (site CCATCATCTAA) | 0
55 | CGATCATCATGGACCGGTTTTCCCGGTAATCCGTATTTGCT (site CCATCATCTAG) | 0.987
56 | CGATCATCATGGACCGGTTTTCCCGGTAATCCGTATTTGCT (site CCATCATCTTG) | 0
57 | CGATCATCATGGACCGGTTTTCCCGGTAATCCGTATTTGCT (site CCATCTTCTAG) | 0
